# Measured values reported in patent publication US20080139551A1, “TUMOR NECROSIS FACTOR ALPHA INHIBITORS AND THEIR USE IN THE TREATMENT OF HUMAN DISEASES” (AVANIR PHARMACEUTICALS, priority 2006, published 2008).
# Columns and labels:
# TNF-alpha = TNF-alpha production in LPS-challenged mice, assayed by ELISA; format: in vivo; settings: Mus musculus, inhibition of TNF-alpha production, formulated in FS-1, oral gavage; for inhibition at 10 mg/kg: 10 mpk P.O.
# Description: Mice were challenged with LPS to produce TNF-alpha in vivo, and then assayed by ELISA after dosing with or without the TNF-alpha inhibitor (formulated in FS-1 and delivered through oral gavage).
# [1] = In vitro incubation with liver microsomes of mouse, metabolite characterisation by HPLC/MS; format: in vitro ADME
# Description: (§1) Stock solutions of NVP-VAQ996-NX-1 (2 mmol/L) were prepared in DMSO. Alamethicin solution was prepared (0.125 mmol/L) in water. Uridine 5′-diphosphoglucuronic acid (UDPGA) solution (24 mmol/L) was prepared in phosphate buffer 100 mM pH 7.4. In a further experiment 50 mmol/L gluthationic acid reduced (GSH) in phosphate buffer 100 mM pH 7.4 was added as second co-factor.
# (§2) For the characterization of in vitro metabolites NVP-VAQ996-NX-1 was incubated at 37° C. for up to 60 minutes with liver microsomes from mouse and human (Table 3).
# (§3) 3 μL liver microsomes, containing 20 mg protein/mL, were mixed with 417 μL phosphate buffer, 60 μL alamethicin solution and 60 μL UDPGA. To this reaction mixture 3 μL stock solution (2 mM in DMSO) of NVP-VAQ996-NX-1 was added and pre-incubated for 3 min at 37° C. After pre-incubation, the final reaction was started by addition of 60 μL of the nicotinamide-adenine-dinucleotide-phosphate (NADPH)-regenerating system, containing isocitrate-dehydrogenase (TU/mL), NADP (1 mmol/L), isocitrate (5 mmol/L). After 1 h, the reaction was stopped with 600 μL ice-cold acetonitrile. Experiments were conducted according to a generic protocol. The reaction mixture was stored at −80° C. The final set-up of the in vitro incubation is shown on Table 4.
# (§4) Prior to use, the mixture was centrifuged (10000 g, 5 min) and 500 μL of 1 mL supernatant evaporated to dryness. […]
# [2] = Metabolite identification in plasma after p.o. administration to mice; set-up: species or system Balb/c mice; settings: in vivo in plasma after p.o. administration of 10 mg/kg to mice
# Description: Female Balb/c mice (Charles River) were housed under standard conditions with free access to food and drinking water throughout the experiment. The mice (n=4) were treated perorally with 10 mg/kg NVP-VAQ996-NX-1 (at 5 mL/kg) by gavage. At the allotted time points mice blood samples were obtained into heparinized tubes (30 IU/mL). The liver was removed intact, weighed and snap frozen before storage at −70° C. until analyzed.
# (§5) For protein precipitation, to 100 μL plasma 100 μL ice-cold acetonitrile was added. This procedure was repeated twice during 1 hour and, after centrifugation (10000 g, 5 min), the supernatant was used for further preparation.
# (§6) The solvent of the supernatant was evaporated using the Cyclone high speed evaporator (Prolab, Reinach, Switzerland) and the residue reconstituted with water/acetonitrile (95/5; v/v). An aliquot of the final solution was used for the high performance liquid chromatography/mass spectrometry (HPLC/MS) analyses.
# (§7) The liquid chromatographic separation was performed using an Chorus-220 syringe pump (CS analytics, Beckenried, Switzerland) and a home-made glass capillary column, 150 mm×0.3 mm, filled with Nucleosil C18-HD, particle size 3.5 μm Gradient mobile phase programming was used with a flow rate of 4.5 μL/min. Eluent A was acetonitrile/water (5/95) 10 mM HCOONH4+0.02% trifluoroacetic acid (TFA). […]
# [3] = In vitro incubation with liver microsomes of human, metabolite characterisation by HPLC/MS; format: in vitro ADME
# Description: as §1, §2, §3, §4
# [4] = In vitro incubation in plasma from mice; format: in vitro ADME, Balb/c mice; settings: heparinized mouse plasma, 5 μg/ml, 2 or 24 hrs at 37° C.
# Description: Heparinized mouse plasma was freshly obtained from Balb/c mice. Samples were incubated with 5 μg/ml NVP-VAQ996 added from a stock solution (1 mg/ml) in DMSO for 2 or 24 hrs at 37° C.
# as §5, §6
# as §7, with “(TFA). Eluent B was acetonitrile/methanol/water (9/5/5)+10 mM HCOONH4+0.02% TFA. The mobile phase was held 2 min. isocratic at 5% B, followed by a linear gradient from 15% B to 95% B over 30 min and a 5 min isocratic phase at 95% B. The column temperature was kept at 40° C.” for “(TFA).”
SMILES,inhibition at 10 mg/kg (TNF-alpha),further results
N#Cc1c(N2CCNCC2)c2ccccc2n(CC(=O)c2ccccc2)c1=O [Compound 102],36.5%,
CC(=O)N1CCN(c2c(C#N)c(=O)n(CC(=O)c3ccccc3)c3ccc(C)cc23)CC1 [Compound 115],41.3%,
Cn1c(=O)c([N+](=O)[O-])c(N2CCNCC2)c2ccccc21 [Compound 108],26.2%,
CN1CCN(c2c(C#N)c(=O)n(CC(=O)c3ccccc3)c3ccccc23)CC1 [Compound 116],29.4%,
CCOC(=O)c1c(N2CCNCC2)c2ccccc2n(Cc2ccc(F)cc2)c1=O [Compound 101],43.4%,
N#Cc1c(N2CCN(C(=O)c3cccs3)CC2)c2ccccc2n(CC(=O)c2ccccc2)c1=O [NVP-VAQ996-NX],,"main metabolite ([1]; after in vitro incubation with liver microsomes of mouse): NVP-VAR235-NX; metabolic degradation with liver microsomes ([1]; mouse liver microsomes 0.1 mg/ml, 5 μM, 37° C., up to 60 min): high; main metabolite [2]: NVP-VAR235-NX; main metabolite ([3]; after in vitro incubation with liver microsomes of human): NVP-VAR235-NX; metabolic degradation with liver microsomes ([3]; human liver microsomes 0.1 mg/ml, 5 μM, 37° C., up to 60 min): high; rate of degradation to metabolite ml in plasma [4]: high"
Cc1ccc2c(c1)c(N1CCNCC1)c(C#N)c(=O)n2C [Compound 105],21%,
CCOC(=O)c1c(N2CCNCC2)c2sccc2n(Cc2cccc(F)c2)c1=O [Compound 113],,"inhibition at 3 mg/kg (TNF-alpha; 3 mg/kg P.O., read-out: % Inhibition (tested at 3 mg/kg)): 84.1%"
Cc1ccc2c(c1)c(N1CCNCC1)c(C#N)c(=O)n2CC(=O)c1ccccc1 [Compound 103],67.3%,
Cc1ccc2c(c1)c(N1CCN(C)CC1)c(C#N)c(=O)n2CC(=O)c1ccccc1 [Compound 114],51.6%,
